Measured values reported in patent US20240368096A1 (Enanta Pharmaceuticals, Inc., priority 2022, published 2024).

Tested on: HBV
Assay: HBV infection in HepG2-NTCP cells (HBeAg AlphaLISA in supernatants)
Format: cell-based
Conditions: Hepatitis B virus, 192 h; HBV infection of HepG2-NTCP cells; HBeAg in supernatants at day 8 post infection; read-out: Cellular EC50
In short: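 HepG2-NTCP A3 cells were pre-incubated 2 h with 3-fold serially diluted compounds, then infected with HBV at 2000 GE/cell with 4% PEG (0.5% DMSO final). After washing on day 1, cells stayed in 2.5% DMSO medium; supernatant HBeAg measured by AlphaLISA on day 8, EC50 versus DMSO controls.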

Compound | EC50 [nM]
CCOC(=O)Nc1cc(-c2cc3c(cc2Cl)N(c2ccccc2)C[C@@H](C2CCCCC2)N(C)S3(=O)=O)sc1C(=O)O [Example 240] | < 100
Cc1ccc(C(=O)O)cc1-c1cc2c(cc1Cl)N(c1ccccc1)C[C@@H](C1CCCCC1)N(C)S2(=O)=O [Example 145, (R)-3-(7-chloro-3-cyclohexyl-2-methyl-1,1-dioxido-5-phenyl-2,3,4,5-tetrahydrobenzo[f][1,2,5]thiadiazepin-8-yl)-4-methylbenzoic acid] | > 1000
Cc1ccc(Oc2cc3c(cc2-c2ccc(F)c(C(=O)O)c2)S(=O)(=O)N(C)[C@H](C2CCCCC2)CN3c2ccccc2)cc1F [Example 411] | < 100
CCCC[C@H]1CN(c2ccccc2)c2cc(N(C)C)c(-c3cccc(C(=O)O)c3)cc2S(=O)(=O)N1C [Example 542] | > 1000
CN1[C@H](C2CCCCC2)CN(c2ccccc2)c2cc(Cl)c(-c3cc(NC(=O)OCCC(F)(F)F)c(C(=O)O)s3)cc2S1(=O)=O [Example 245] | 100 to 1000
CC(C)C[C@@H]1CN(c2ccccc2)c2cc(N(C)c3cccc(F)c3)c(-c3ccc(Cl)c(C(=O)O)c3)cc2S(=O)(=O)N1C [Example 555] | 100 to 1000
CC(C)CC1CN(c2cccc(F)c2)c2cc(Cl)c(-c3cccc(C(=O)O)c3)cc2S(=O)(=O)N1C (stereo not shown) [Example 329] | 100 to 1000
CN1[C@H](CC(C)(C)C)CN(c2ccccc2)c2cc(Cl)c(-c3ccc(F)c(C(=O)O)c3)cc2S1(=O)=O [Example 50] | 100 to 1000
CC(C)OCCOc1cc2c(cc1-c1cc(F)c(C(=O)O)s1)S(=O)(=O)N(C)[C@H](C1CCCCC1)CN2c1ccccc1 [Example 497] | < 100
CC(C)C[C@@H]1CN(c2ccccc2)c2cc(Oc3cccc(C(F)(F)F)c3)c(-c3ccc(F)c(C(=O)O)c3)cc2S(=O)(=O)N1C [Example 425] | < 100
COC1CCN(c2cc3c(cc2-c2ccc(F)c(C(=O)O)c2)S(=O)(=O)N(C)[C@H](C2CCCCC2)CN3c2ccccc2)CC1 [Example 534] | 100 to 1000
CN1[C@H](C2CCCCC2)CN(c2ccccc2)c2cc(Cl)c(-c3cc(C(=O)O)[nH]n3)cc2S1(=O)=O [Example 135, (R)-3-(7-chloro-3-cyclohexyl-2-methyl-1,1-dioxido-5-phenyl-2,3,4,5-tetrahydrobenzo[f][1,2,5]thiadiazepin-8-yl)-1H-pyrazole-5-carboxylic acid] | 100 to 1000
COc1cccc(Oc2cc3c(cc2-c2ccc(F)c(C(=O)O)c2)S(=O)(=O)N(C)[C@H](CC(C)C)CN3c2ccccc2)c1 [Example 427] | < 100
CN1[C@H](C2CCCCC2)CN(c2ccccc2)c2cc(OCc3ccsc3)c(-c3ccc(NC(=O)OCc4ccccc4)c(C(=O)O)c3)cc2S1(=O)=O [Example 481] | < 100
CN1[C@H](C2CCCCC2)CN(c2ccccc2)c2cc(Cl)c(-c3cc(C(=O)O)c4nccn4c3)cc2S1(=O)=O [Example 211] | 100 to 1000
COc1cc(F)cc(Oc2cc3c(cc2-c2ccc(F)c(C(=O)O)c2)S(=O)(=O)N(C)[C@H](C2CCCCC2)CN3c2ccccc2)c1 [Example 409] | < 100
COCCOc1cccc(N2C[C@@H](C3CCCCC3)N(C)S(=O)(=O)c3cc(-c4ccc(F)c(C(=O)O)c4)c(Cl)cc32)c1 [Example 312] | < 100

Compound | EC50 [nM]
CC(C)C[C@@H]1CN(c2ccccc2)c2cc(Oc3cccc(OC(F)(F)F)c3)c(-c3ccc(F)c(C(=O)O)c3)cc2S(=O)(=O)N1C [Example 438] | < 100
CCCCCOC(=O)Nc1cc(-c2cc3c(cc2Cl)N(c2ccccc2)C[C@@H](C2CCCCC2)N(C)S3(=O)=O)sc1C(=O)O [Example 247] | < 100
CN1[C@H](C2CCCCC2)CN(c2ccccc2)c2cc(Cl)c(-c3cccc(C(=O)C(=O)O)c3)cc2S1(=O)=O [Example 207] | < 100
CN1[C@@H](CC2CC2)CN(c2ccccc2)c2cc(Cl)c(-c3ccc(F)c(C(=O)O)c3)cc2S1(=O)=O [Example 42] | > 1000
CC(C)C[C@@H]1CN(c2ccccc2)c2cc(Cl)c(-c3cccc(S(=O)(=O)NC(=O)c4ccccc4)c3)cc2S(=O)(=O)N1C [Example 221] | 100 to 1000
CN1[C@H](C2CCCCC2)CN(c2ccc(C(F)(F)F)cc2)c2cc(Cl)c(-c3ccc(F)c(C(=O)O)c3)cc2S1(=O)=O [Example 300] | < 100
CN1[C@H](C2CCCCC2)CN(c2ccccc2)c2cc(Cl)c(-c3cc(NC(=O)OCC4CC4)c(C(=O)O)s3)cc2S1(=O)=O [Example 252] | < 100
CC(C)C[C@@H]1CN(c2ccccc2)c2cc(Cl)c(-c3ccc(Cl)c(C(=O)O)c3)cc2S(=O)(=O)N1C [Example 60] | < 100
CN1[C@H](C2CCCCC2)CN(c2ccccc2)c2cc(Cl)c(-c3cc(NC(=O)OC(C)(C)C)c(C(=O)O)s3)cc2S1(=O)=O [Example 238, (R)-3-((tert-butoxycarbonyl)amino)-5-(7-chloro-3-cyclohexyl-2-methyl-1,1-dioxido-5-phenyl-2,3,4,5-tetrahydrobenzo[f][1,2,5]thiadiazepin-8-yl)thiophene-2-carboxylic acid] | 100 to 1000
CC(C)C[C@@H]1CN(c2ccccc2)c2cc(Cl)c(-c3cccc(C(=O)C(=O)O)c3)cc2S(=O)(=O)N1C [Example 205, (R)-2-(3-(7-chloro-3-isobutyl-2-methyl-1,1-dioxido-5-phenyl-2,3,4,5-tetrahydrobenzo[f][1,2,5]thiadiazepin-8-yl)phenyl)-2-oxoacetic acid] | < 100
CC(C)Oc1ccccc1COc1cc2c(cc1-c1cc(F)c(C(=O)O)s1)S(=O)(=O)N(C)[C@H](C1CCCCC1)CN2c1ccccc1 [Example 505] | < 100
CCCCOc1cccc(N2C[C@@H](C3CCCCC3)N(C)S(=O)(=O)c3cc(-c4ccc(F)c(C(=O)O)c4)c(Cl)cc32)c1 [Example 310] | < 100
CN1[C@H](C2CCCCC2)CN(c2ccccc2)c2cc(C3CN(C(=O)OC(C)(C)C)C3)c(-c3ccc(F)c(C(=O)O)c3)cc2S1(=O)=O [Example 594] | 100 to 1000
CN1[C@H](C2CCCCC2)CN(c2ccccc2)c2cc(OC3CCN(C(=O)OC(C)(C)C)CC3)c(-c3ccc(F)c(C(=O)O)c3)cc2S1(=O)=O [Example 393, (R)-5-(7-((1-(tert-butoxycarbonyl)piperidin-4-yl)oxy)-3-cyclohexyl-2-methyl-1,1-dioxido-5-phenyl-2,3,4,5-tetrahydrobenzo[f][1,2,5]thiadiazepin-8-yl)-2-fluorobenzoic acid] | < 100
Cc1cncc(N2C[C@@H](C3CCCCC3)N(C)S(=O)(=O)c3cc(-c4ccc(F)c(C(=O)O)c4)c(Cl)cc32)c1 [Example 281] | < 100
CN1[C@H](C2CCCCC2)CN(c2ccccc2)c2cc(Cl)c(-c3ccc(C(=O)O)c(C(=O)O)c3)cc2S1(=O)=O [Example 213, (R)-4-(7-chloro-3-cyclohexyl-2-methyl-1,1-dioxido-5-phenyl-2,3,4,5-tetrahydrobenzo[f][1,2,5]thiadiazepin-8-yl)phthalic acid] | 100 to 1000

Target: T1, NTCP (Homo sapiens, UniProt Q14973)
T1 construct: expressed in transfected cells; host or cells: HepG2-NTCP (clone A3, kept under puromycin)
T1 sequence (Q14973 1-349): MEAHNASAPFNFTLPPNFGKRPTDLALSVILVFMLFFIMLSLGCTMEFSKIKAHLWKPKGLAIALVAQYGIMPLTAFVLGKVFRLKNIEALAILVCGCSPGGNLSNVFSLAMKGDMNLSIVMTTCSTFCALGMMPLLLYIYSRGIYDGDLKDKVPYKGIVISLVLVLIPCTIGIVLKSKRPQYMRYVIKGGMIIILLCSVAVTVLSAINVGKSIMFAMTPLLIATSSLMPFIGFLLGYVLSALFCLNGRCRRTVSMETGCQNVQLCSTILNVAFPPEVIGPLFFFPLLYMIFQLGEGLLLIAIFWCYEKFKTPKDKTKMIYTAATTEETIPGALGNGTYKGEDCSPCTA
Assay: HepG2-NTCP preS1 binding competition assay (FITC-labeled myristoylated preS1 peptide)
Conditions: HepG2-NTCP cells; competition with FITC-labeled preS1 peptide
Description: HepG2-NTCP preS1 Binding Competition Assay
Myristoylated preS1 peptide (2-48 aa) conjugated to a C-terminal FITC tag was synthesized to evaluate preS1 binding to NTCP-expressing cells. HepG2-NTCP cells seeded in 384-wells were pre-treated with compounds for 2 hours prior to the addition of FITC-labeled preS1 peptide. After co-incubation for 30 minutes, unbound FITC-preS1 peptide was washed twice with PBS, and the fluorescence of preS1-FITC bound to cell surface was detected by Envision plate reader. EC50 ranges are as follows: A<0.1 μM; B 0.1-1 μM; C>1 μM.

Compound | EC50 [nM]
CCOC(=O)Nc1cc(-c2cc3c(cc2Cl)N(c2ccccc2)C[C@@H](C2CCCCC2)N(C)S3(=O)=O)sc1C(=O)O [Example 240] | < 100
CN1[C@H](C2CCCCC2)CN(c2ccccc2)c2cc(O[C@H]3C[C@H](O)C3)c(-c3cc(F)c(C(=O)O)s3)cc2S1(=O)=O [Example 503] | 100 to 1000
CN1[C@H](C2CCCCC2)CN(c2ccccc2)c2cc(Cl)c(-c3cc(Cl)c(N)c(C(=O)O)c3)cc2S1(=O)=O [Example 192] | 100 to 1000
CN(C)C(=O)c1ccc(N2C[C@@H](C3CCCCC3)N(C)S(=O)(=O)c3cc(-c4ccc(F)c(C(=O)O)c4)c(Cl)cc32)cc1 [Example 315] | > 1000
COC1CC(OC(=O)Nc2cc(-c3cc4c(cc3Cl)N(c3ccccc3)C[C@@H](C3CCCCC3)N(C)S4(=O)=O)sc2C(=O)O)C1 (stereo partly shown) [Example 264] | < 100
CC(C)C(=O)NS(=O)(=O)c1ccc(-c2cc3c(cc2Cl)N(c2ccccc2)C[C@@H](C2CCCCC2)N(C)S3(=O)=O)s1 [Example 227] | 100 to 1000
CN1[C@H](C2CCCCC2)CN(c2ccccc2)c2cc(Cl)c(N3CC[C@@H](C(=O)O)C3)cc2S1(=O)=O [Example 610] | 100 to 1000
CN1[C@H](C2CCCCC2)CN(c2ccccc2)c2cc(OC3COC3)c(-c3ccc(F)c(C(=O)O)c3)cc2S1(=O)=O [Example 370] | 100 to 1000
CN1[C@H](C2CCCCC2)CN(c2ccccc2)c2cc(Cl)c(N3CC[C@H](C(=O)O)C3)cc2S1(=O)=O [Example 611] | 100 to 1000
CN1[C@H](C2CCCCC2)CN(c2ccccc2)c2cc(Cl)c(-c3ccc(S(=O)(=O)NC(=O)c4ccccc4)s3)cc2S1(=O)=O [Example 226] | 100 to 1000
CN1[C@H](C2CCCCC2)CN(c2ccccc2)c2cc(Cl)c(-c3cc(NC(=O)OCCOC(C)(C)C)c(C(=O)O)s3)cc2S1(=O)=O [Example 262] | < 100
COCCCOC(=O)Nc1cc(-c2cc3c(cc2Cl)N(c2ccccc2)C[C@@H](C2CCCCC2)N(C)S3(=O)=O)sc1C(=O)O [Example 263] | < 100
CN1[C@H](C2CCCCC2)CN(c2ccccc2)c2cc(Cl)c(-c3ccc(S(N)(=O)=O)s3)cc2S1(=O)=O [Example 201] | > 1000
